{"source": "paper PMC9189904", "about": "“Functional Properties of Two Distinct PTH1R Mutants Associated With Either Skeletal Defects or Pseudohypoparathyroidism” (JBMR Plus, 2022)", "assay_type_in_all_cases": "cell-based", "key": {"PTH1R‐P132L": {"molecular_target": "T1, PTH1R‐P132L (Homo sapiens, UniProt Q03431, P132L)", "T1 construct": "expressed in transfected cells; plasmid TG-395 in pCDNA1", "T1 sequence (Q03431 27-593 E90Y/S91D/E92V/E93P/K95Y/E96A/P132L)": "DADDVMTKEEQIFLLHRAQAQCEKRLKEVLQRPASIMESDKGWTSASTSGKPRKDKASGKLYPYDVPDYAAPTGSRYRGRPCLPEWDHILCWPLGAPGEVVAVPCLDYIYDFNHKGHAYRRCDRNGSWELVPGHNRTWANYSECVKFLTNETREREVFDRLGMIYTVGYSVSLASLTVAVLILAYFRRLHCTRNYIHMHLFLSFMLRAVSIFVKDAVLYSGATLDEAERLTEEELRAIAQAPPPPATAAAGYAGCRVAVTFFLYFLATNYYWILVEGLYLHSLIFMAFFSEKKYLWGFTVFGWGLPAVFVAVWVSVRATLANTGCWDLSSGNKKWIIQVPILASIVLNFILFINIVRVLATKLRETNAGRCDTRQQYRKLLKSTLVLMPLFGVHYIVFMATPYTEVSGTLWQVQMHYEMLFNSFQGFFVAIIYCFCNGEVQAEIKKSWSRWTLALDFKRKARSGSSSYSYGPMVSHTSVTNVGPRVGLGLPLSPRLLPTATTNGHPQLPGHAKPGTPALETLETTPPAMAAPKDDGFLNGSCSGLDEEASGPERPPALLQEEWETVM", "test": "β-arrestin2-YFP recruitment by fluorescence microscopy in GBR-24 cells, ImageJ analysis", "conditions": "ligand 30nM", "description": "(§1) Recruitment of β‐arrestin was assessed in GBR‐24 cells (HEK293/GloSensor (GS‐22A)‐derived cells stably expressing β‐arrestin2^YFP)^( [30] ^) that were transiently transfected to express PTH1R‐WT or a mutant derivative.\n(§2) Fluorescent microscopy images were analyzed using ImageJ software, ver. […] The freehand tool was used to define the area analyzed for each cell, and the Measure>Analyze Particle tool was used to obtain the number of particles, the total area and the mean grayscale (intensity) of each particle for each cell. For each cell, the number of particles was divided by the total area to obtain the Particles/Total Area."}, "PTH1R‐R186H [1]": {"molecular_target": "T2, PTH1R‐R186H (Homo sapiens, UniProt Q03431, R186H)", "T2 construct": "expressed in transfected cells; plasmid TG-907 made by VectorBuilder", "T2 sequence (Q03431 27-593 E90Y/S91D/E92V/E93P/K95Y/E96A/R186H)": "T1 sequence (Q03431 27-593 E90Y/S91D/E92V/E93P/K95Y/E96A/P132L) with L106P, R160H", "test": "β-arrestin2-YFP recruitment by fluorescence microscopy in GBR-24 cells, ImageJ analysis", "conditions": "ligand 30nM", "description": "as §1, §2"}, "PTH1R‐V204E [2]": {"molecular_target": "T3, PTH1R‐V204E (Homo sapiens, UniProt Q03431, V204E)", "T3 construct": "expressed in transfected cells; plasmid TG-928 made by VectorBuilder", "T3 sequence (Q03431 27-593 E90Y/S91D/E92V/E93P/K95Y/E96A/V204E)": "T1 sequence (Q03431 27-593 E90Y/S91D/E92V/E93P/K95Y/E96A/P132L) with L106P, V178E", "test": "β-arrestin2-YFP recruitment by fluorescence microscopy in GBR-24 cells, ImageJ analysis", "conditions": "ligand 30nM", "description": "as §1, §2"}, "PTH1R‐WT [3]": {"molecular_target": "T4, PTH1R‐WT (Homo sapiens, UniProt Q03431)", "T4 construct": "expressed in transfected cells; plasmid TG-906 made by VectorBuilder", "T4 sequence (Q03431 27-593 E90Y/S91D/E92V/E93P/K95Y/E96A)": "T1 sequence (Q03431 27-593 E90Y/S91D/E92V/E93P/K95Y/E96A/P132L) with L106P", "test": "β-arrestin2-YFP recruitment by fluorescence microscopy in GBR-24 cells, ImageJ analysis", "conditions": "ligand 30nM", "description": "as §1, §2"}, "PTH1R‐R186H [4]": {"molecular_target": "T2, PTH1R‐R186H", "test": "Fluorescence microscopy of PTH(1-34)TMR-PTH1R complexes in GS-22a cells, ImageJ analysis", "conditions": "ligand 30nM, means of six cells, representative experiment", "description": "(§3) PTH analog binding to WT and mutant PTH1Rs was assessed by fluorescence microscopy in transiently transfected GS‐22A cells as described.^( [30], [31] ^) Briefly, the cells were transfected in six‐well plates, reseeded at 24 hours onto coverslips in six‐well plates, and at 48 hours posttransfection processed for analysis. The plates were placed on ice and the cells on coverslips were rinsed with cold HB. Then 1.0 mL of HB was then added to each well, followed by Alexafluor‐488‐labeled mouse monoclonal anti‐HA immunoglobulin G (IgG) antibody (BioLegend; Cat. No. 901509) at a concentration of 1 μg/mL, and the plate was incubated at 4°C for 1 hour. […] The plate was then shifted to room temperature and incubations continued for 30 minutes. The mixtures were then removed, the cells were rinsed twice with HB, fixed for 5 minutes in 3.7% paraformaldehyde buffer (Boston BioProducts, Inc., Ashland, MA, USA; Cat. No. BM‐158), rinsed with HB, then mounted on a glass microscope slide in Vectashield media containing 4′,6‐diamidino‐2‐phenylindole (DAPI) (Vector Laboratories, Burlingame, CA, USA; Cat. No. H1500) and imaged at magnification ×400 using a Nikon Eclipse fluorescence microscope equipped with a CCD camera configured with SPOT imaging software (Nikon, Tokyo, Japan). Regions of interest were digitally expanded 5× or 7× in PowerPoint software (Microsoft Corp., Redmond, WA, USA).\nas §2"}, "PTH1R‐V204E [5]": {"molecular_target": "T3, PTH1R‐V204E", "test": "Fluorescence microscopy of PTH(1-34)TMR-PTH1R complexes in GS-22a cells, ImageJ analysis", "conditions": "ligand 30nM, means of six cells, representative experiment", "description": "as §3, §2"}, "PTH1R‐WT [6]": {"molecular_target": "T4, PTH1R‐WT", "test": "Fluorescence microscopy of PTH(1-34)TMR-PTH1R complexes in GS-22a cells, ImageJ analysis", "conditions": "ligand 30nM, 30 min 4°C then 30 min room temperature, means of six cells, representative experiment", "description": "as §3, §2"}, "[7]": {"conditions": "GBR24 cells, means of six cells"}, "[8]": {"conditions": "GBR-24 cells, 30 min, a representative cell"}}, "note": "Changes are numbered by the printed parent chain.", "data": [{"substance": "tetramethylrhodamine (TMR)‐^ n L ^8,21‐rat‐PTH(1‐34) [PTH(1‐34)^TMR]", "values": [{"measurement": "Particles/Total Area (βArrestinYFP-ligand complexes)", "setting": "PTH1R‐P132L; [7]", "result": "223 ± 66"}, {"measurement": "ligand binding and β-arrestin2YFP recruitment (microscopy signal)", "setting": "PTH1R‐P132L; GBR-24 cells, 30 min (Fig. 4A)", "result": "Only faint signal"}, {"measurement": "Particles/Total Area (βArrestinYFP-ligand complexes)", "setting": "PTH1R‐R186H [1]; [7]", "result": "603 ± 81"}, {"measurement": "Pearson correlation coefficient (R), colocalization of ligand with β-arrestin2YFP", "setting": "PTH1R‐R186H [1]; [8]", "result": 0.86}, {"measurement": "Particles/Total Area (βArrestinYFP-ligand complexes)", "setting": "PTH1R‐V204E [2]; [7]", "result": "496 ± 44"}, {"measurement": "Pearson correlation coefficient (R), colocalization of ligand with β-arrestin2YFP", "setting": "PTH1R‐V204E [2]; [8]", "result": 0.69}, {"measurement": "Particles/Total Area (βArrestinYFP-ligand complexes)", "setting": "PTH1R‐WT [3]; GBR24 cells, 30 min room temperature, means of six cells, representative experiment", "result": "704 ± 22"}, {"measurement": "Pearson correlation coefficient (R), colocalization of ligand with β-arrestin2YFP", "setting": "PTH1R‐WT [3]; [8]", "result": 0.97}, {"measurement": "Particles /Total Area", "setting": "PTH1R‐R186H [4]", "result": "1162 ± 95"}, {"measurement": "Particles /Total Area", "setting": "PTH1R‐V204E [5]", "result": "826 ± 78"}, {"measurement": "Particles /Total Area", "setting": "PTH1R‐WT [6]", "result": "1011 ± 57"}]}]}
